Measurements reported in patent US7579488B2 (Eli Lilly and Company, priority 2003, dated 2009).
Several values for one entry are separate records, joined by “and”; a condition that tells them apart may be missing. Identical values can stand only once. Like-named read-outs stand apart in the source and are kept apart here.

Experiments:
female DBF mice [1] = conditions: in vivo, po
Description: The Mouse Hypercalcemia Assay
(§1) The Mouse Hypercalcemia Assay is a six day hypercalcemia test for toxicity and selectivity.
(§2) (4) Materials and Method for the Mouse Hypercalcemia Assay:
(§3) Weanling, virus-antibody-free, five to six weeks old female DBF mice (Harlan, Indianapolis, Ind.) are used for all the studies. Animals are allowed to acclimate to local vivarium conditions for 2 days. […] The animals then are divided into groups with 4-5 mice per group. Different doses of test compounds prepared in 10% Ethanol and 90% sesame oil are administered to mice orally via gavage for 6 days. 1α-25(OH)2D3 0.5 μg/kg/d was also given to one group of mice as the positive control. […] Raw data of group differences is assessed by analysis of variance (ANOVA) using Fisher's protected least significant difference (PLSD) where the significance level was P<0.05.

female DBF mice [2] = experiment: Mouse hypercalcemia assay; conditions: oral gavage for 6 days; serum ionized calcium 6 hours after last dosing
Description: The Mouse Hypercalcemia Assay
as §1, §2, §3

IL-10 = IL-10 induction assay; type: cell-based; conditions: Homo sapiens, PBMC, TPA/PHA stimulated human PBMCs, IL-10 in supernatant by immunoassay; several values separated by /
Excerpt: 6. The IL-10 Induction Assay
This is an in vitro efficacy assay for psoriasis, abscess and adhesion. Psoriasis involves both keratinocytes and immune cells. IL-10 is a unique cytokine because it is anti-inflammatory and immunosuppressive. This assay tells us whether a VDRM is able to function as an agonist in PBMCs ([…]) or not.
(6) Materials and Method for Human IL-10 Induction Assay:
Isolation of Peripheral Blood Mononuclear Cells (PBMCs):
B. Prepare sterile tubes with ficol.
C. Add diluted blood to tubes.
E. Discard the top layer and collect the cells from middle layer.
F. Divide all cells into four tubes and add media.
H. Aspirate off media and resuspend.
J. Centrifuge. at 1200 rpm for 10 minutes.
M. Dissolve PHA in water.
N. Plate TPA/PHA treated PBMCs in well plates.
Sample Collection and Assay:
S. Remove all the cells by centrifugation and assay the supernatant for IL-10 by immunoassay.
1) T. Perform […] using anti-human IL-10 antibody coated beads, as described by the manufacturer (Linco Research Inc., St. Charles, Mo.).

VDR = biological target: T1, VDR (Homo sapiens, UniProt P11473); experiment: VDR CTF (Caco-2 cell co-transfection) assay; type: cell-based; conditions: Caco-2 cells, pGal4-VDR-LBD co-transfection, luciferase; several values separated by /
T1 construct: the receptor expression vector pGal4-VDR-LBD (10 ng); expressed in transfected cells; host or cells: Caco-2 cells
T1 sequence (P11473 127-423 limits assumed): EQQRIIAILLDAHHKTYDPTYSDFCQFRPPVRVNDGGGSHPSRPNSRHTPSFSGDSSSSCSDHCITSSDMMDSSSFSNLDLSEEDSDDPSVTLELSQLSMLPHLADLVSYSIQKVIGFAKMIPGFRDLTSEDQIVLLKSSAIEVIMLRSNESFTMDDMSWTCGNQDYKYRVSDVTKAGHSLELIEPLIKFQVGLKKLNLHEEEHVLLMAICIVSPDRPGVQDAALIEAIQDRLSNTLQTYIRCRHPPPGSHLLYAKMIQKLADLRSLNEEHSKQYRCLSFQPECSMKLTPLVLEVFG
Description: 2. The Caco-2 Cell Co-Transfection Assay:
The Caco-2 cell assay is an indicator for the undesirable condition of hypercalcemia. This co-transfection assay is a surrogate assay for in vivo calcemic activity of VDR ligands. […] Preferred assay results are greater than 1000 nM.
(2) Materials and Method for the Caco-2 Cell Assay:
Caco-2 cells, grown in phenol red free, DMEM (Invitrogen, Carlsbad, Calif.) containing 10% charcoal-stripped FCS (Hyclone, Logan, Utah), were transfected with Fugene 6 reagent (Roche Diagnostics, Indianapolis, Ind.). Cells (5000/well) were plated 18 h before transfection in a 96 well plate. The Cells were transfected with Gal4-responsive reporter pFRLuc (150 ng, Stratagene, La Jolla Calif.) and the receptor expression vector pGal4-VDR-LBD (10 ng), along with Fugene 6 reagent (0.2 μl/well). The DNA-Fugene complex was formed by incubating the mixture for 30 min at room temperature. The cells were transfected in triplicate for 5 h, and treated with various concentrations of VDR ligands (form 0.01 nM to 10,000 nM concentration range) 18 h post-transfection. The luciferase activity was quantified using Steady-Glo reagent kit (Promega, Madison, Wis.) as per manufacturer's specifications.

rat osteocalcin promoter = experiment: OCN (osteocalcin) promoter assay; type: cell-based; conditions: RG-15 (ROS 17/2.8) cells, 48 hr treatment, luciferase, several values separated by /
Summary of the method: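 Rat osteoblast-like RG-15 (ROS 17/2.8) cells stably carrying a luciferase reporter driven by the osteocalcin promoter, treated with compounds in DMSO (0.01% v/v final) in medium with 2% FBS. After 48 hr at 37 °C, cells were lysed and luciferase activity measured.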

RXR-VDR heterodimer = biological target: T2, RXR-VDR heterodimer (Homo sapiens, UniProt P11473); experiment: RXR-VDR heterodimerization assay (SaOS-2 cells); type: cell-based; conditions: Gal4-RXR-DEF/VP16-VDR-LBD luciferase reporter, several values in a cell separated by /
T2 construct: Add the Gal4-RXR-DEF and VP16-VDR-LBD; expressed in transfected cells; host or cells: SaOS-2 cells
T2 sequence (P11473 127-423 limits assumed): T1 sequence (P11473 127-423 limits assumed)
T2 sequence (P19793 201-462 partner limits assumed): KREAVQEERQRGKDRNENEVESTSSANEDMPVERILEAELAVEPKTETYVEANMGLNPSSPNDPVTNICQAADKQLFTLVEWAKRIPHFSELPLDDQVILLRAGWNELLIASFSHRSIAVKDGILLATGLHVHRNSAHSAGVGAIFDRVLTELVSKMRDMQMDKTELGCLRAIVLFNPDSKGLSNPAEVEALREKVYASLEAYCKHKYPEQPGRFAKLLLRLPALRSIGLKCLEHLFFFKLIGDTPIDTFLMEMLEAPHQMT

KERtr cells = experiment: Keratinocyte proliferation assay; type: cell-based; conditions: Homo sapiens, 72 h, BrdU incorporation, several values separated by /, read-out: Kera. Prolif. IC50

With `C=C1/C(=C\C=C2/CCC[C@]3(C)[C@@H]([C@H](C)CCCC(C)(C)O)CC[C@@H]23)C[C@@H](O)C[C@@H]1O` [AA, 1α,25-dihydroxyvitamin D3] the “Mouse Hypercal” value (female DBF mice [1]) was 0.06 µg/kg/day.

For `CCC(CC)(c1ccc(OCC(=O)C(C)(C)C)c(C)c1)c1cc(C)c2oc(C(=O)O)cc2c1` [Ex 21, 5-{1-[4-(3,3-dimethyl-2-oxo-butoxy)-3-methyl-phenyl]-1-ethyl-propyl}-7-methyl-benzofuran-2-carboxylic acid], the “Mouse Hypercal” value (female DBF mice [2]) was greater than 1000 µg/kg/day, the IC50 (IL-10) was 80 nM and the EC50 (VDR) was 462 nM. The EC50 (rat osteocalcin promoter) was 1 nM, the EC50 (rat osteocalcin promoter; Rattus norvegicus, 48 h) was 2 nM and the EC50 (RXR-VDR heterodimer) was 50 nM and 5 nM. For the same compound, the IC50 (KERtr cells) was 18 nM.

In the case of `CCC(CC)(c1ccc(OCC(=O)C(C)(C)C)c(C)c1)c1ccc2oc(C(=O)NCC(=O)O)cc2c1` [Ex 32, [(5-{1-[4-(3,3-dimethyl-2-oxo-butoxy)-3-methyl-phenyl]-1-ethyl-propyl}-benzofuran-2-carbonyl)-amino]-acetic acid], the “Mouse Hypercal” value (female DBF mice [2]) is reported as greater than 300 µg/kg/day, the IC50 (IL-10) is reported as 51 nM and the EC50 (VDR) is reported as 385 nM. The EC50 (rat osteocalcin promoter; Rattus norvegicus, 48 h) was 1 nM, the EC50 (RXR-VDR heterodimer) was 31 nM and 4 nM and the IC50 (KERtr cells) was 10 nM.
